Measurements taken from ChEMBL document CHEMBL4888484, “Replenishing the malaria drug discovery pipeline: Screening and hit evaluation of the MMV Hit Generation Library 1 (HGL1) against asexual blood stage Plasmodium falciparum ,using a nano luciferase reporter read-out” (2022).

Tests used:
Plasmodium falciparum [1] = assay: Hit confirmation in dose-response curve in Dd2 pLDH assay, at 72h; assay type: functional, organism-based; design: timepoint 72 hour; details: Dd2, Erythrocyte
Plasmodium falciparum [2] = assay: Hit confirmation in dose-response curve in NF54 pLDH assay, at 72h; assay type: functional, organism-based; design: timepoint 72 hour; details: NF54, Erythrocyte
[3] = Hit confirmation in dose-response curve in HepG2 cytotoxicity assay, at 72h; assay type: toxicity, cell-based; design: timepoint 72 hour; details: human, HepG2 cells
Plasmodium falciparum [4] = assay: Hit confirmation in dose-response curve in NF54 nanoGlo assay, at 12h; assay type: functional, organism-based, Erythrocyte; design: timepoint 12 hour; details: Plasmodium falciparum, NF54, Erythrocyte, 12 h
Plasmodium falciparum [5] = assay: Hit confirmation in dose-response curve in NF54 nanoGlo assay, at 72h; assay type: functional, organism-based, Erythrocyte; design: timepoint 72 hour; details: Plasmodium falciparum, NF54, Erythrocyte, 72 h

Compound | IC50 (Plasmodium falciparum [1]) [µM] | IC50 (Plasmodium falciparum [2]) [µM] | IC50 at 72 h [3] [µM] | IC50 (Plasmodium falciparum [4]) [µM] | IC50 (Plasmodium falciparum [5]) [µM]
O=C(Nc1c(S(=O)(=O)c2ccccc2)c2nc3ccccc3nc2n1CCc1ccccc1)c1ccc(Cl)cc1 | 5.62 | 11.2 | > 10 | 0.603 | 1.1
O=C(Nc1[nH]c(=O)ncc1F)c1cccc2ccccc12 | > 10 | 0.0105 | > 10 | 1.95 | 0.00617
O=C(Nc1cccc2cccnc12)c1ccccn1 | 2 | 0.871 | 3.47 | > 10 | 0.794
COc1ccccc1CN(C(=O)c1ccc(C)cc1)c1ccc(CC(=O)NCCN2CCCCC2)cc1 | > 10 | 0.513 | > 10 | > 10 | 3.16
Cc1oc(-c2ccn[nH]2)cc1S(=O)(=O)Nc1ccc(F)c(Cl)c1 | > 10 | > 10 | > 10 | 2.57 | 5.37
Cc1n(CC(=O)c2ccccc2)c2ccccc2[n+]1CC(=O)c1ccccc1 | 1.62 | 1.55 | > 10 | > 10 | 1.05
N#Cc1c(NC(=O)Nc2cn3ccccc3c2C#N)cn2ccccc12 | 1 | 1.35 | > 10 | > 10 | 0.302
COCCCn1c(NS(=O)(=O)c2ccccc2)c(S(=O)(=O)c2ccc(C)cc2)c2nc3ccccc3nc21 | 8.91 | > 10 | > 10 | 6.17 | 4.68
COc1ccc(OC)c(NC(=O)CN2CCc3[nH]c4ccc(F)cc4c(=O)c3C2)c1 | 7.94 | > 10 | > 10 | > 10 | 8.32
CCOc1ccc(NC(=O)c2cn3nc(-c4ccc(OCC)cc4)cc3nc2C2CCN(C(=O)OC(C)(C)C)CC2)cc1 | 7.76 | > 10 | > 10 | > 10 | > 10
Cc1oc(-c2ccc(C(=O)N3CCN(c4ccccc4)CC3)cc2)nc1CN1CCC(C)CC1 | > 10 | 3.39 | > 10 | 2.34 | 2.14
Cc1cc(C)cc(-c2cc3nc(C)cc(N4CCC(C(=O)NCc5cccc(F)c5)CC4)n3n2)c1 | 2.04 | 2.45 | > 10 | 4.37 | 1.48
COc1nc(-c2cccc(C(=O)NCC3CCOCC3)c2)ncc1F | > 10 | 1.66 | > 10 | > 10 | 0.575
COc1ccc(CCNc2oc(-c3cccnc3)nc2C#N)cc1OC | > 10 | > 10 | > 10 | 2.4 | 3.98
CN1CCC(N2CCC(CN(Cc3ccncc3)Cc3c(F)cccc3Cl)CC2)CC1 | 0.603 | 1.17 | > 10 | 1.74 | 0.708
C[C@H]1CCC[C@@H](NCCc2ccccc2)CCC/C=C/c2cc(O)cc(O)c2C(=O)O1 | 2.29 | 2.95 | > 10 | 8.51 | 0.759
CC(C(=O)Nc1nccs1)N1CCCC(c2ccn[nH]2)C1 (stereo not given) | 3.09 | 7.24 | > 10 | > 10 | 3.09
Cc1ccccc1C(=O)Cc1ncc[nH]1 | 3.89 | 5.75 | > 10 | 4.9 | 2.29
COc1nc(NC2CCS(=O)(=O)CC2)ncc1F | > 10 | 0.0832 | > 10 | > 10 | 0.0479
CCNc1nc(C)cc(Nc2ccc(NS(=O)(=O)c3c(C)noc3C)cc2)n1 | 2.51 | 3.47 | > 10 | 5.01 | 2.69
O=C(Cc1ccc(N(Cc2cccc(F)c2)C(=O)C2CCCC2)cc1)NCCN1CCCC1 | > 10 | 5.01 | > 10 | > 10 | 3.98
Cc1c(C)n(CC(O)CNC(C)c2ccccc2)c2c(Cl)cccc12 (stereo not given) | 8.51 | 9.77 | 10 | 3.16 | 2
CC1CCN(C[C@H]2CCCCCN2C(=O)NCCc2ccccc2)CC1 | 6.31 | 2.45 | > 10 | > 10 | 3.98
Oc1ccccc1CNc1cccc2cccnc12 | 8.13 | > 10 | > 10 | 8.51 | 4.37
Oc1cccc(CN2CCC3(CC2)C[C@H](c2ccccc2)CN(C2CC2)C3)c1 | 6.31 | 6.31 | > 10 | 5.13 | 3.24

Compound | IC50 (Plasmodium falciparum [1]) [µM] | IC50 (Plasmodium falciparum [2]) [µM] | IC50 at 72 h [3] [µM] | IC50 (Plasmodium falciparum [4]) [µM] | IC50 (Plasmodium falciparum [5]) [µM]
CC(C)N1C(=O)NC(=O)C2(Cc3ccccc3N3CCN(Cc4ccccc4)CC32)C1=O (stereo not given) | > 10 | > 10 | > 10 | > 10 | 3.98
Cc1ccc(-c2cc(C(=O)Nc3nnc(C(C)C)s3)no2)cc1F | > 10 | > 10 | > 10 | 1.91 | 3.8
CCCN1C(=O)c2ccccc2N2C(=O)CC[C@@]12C(=O)Nc1ccc(OC)cc1 | 2.75 | 3.47 | > 10 | 1.38 | 1.45
COC(=O)c1c(NC(C)=O)c2cc(NC3CCOCC3)cnc2n1CCc1ccc(OC)cc1 | > 10 | > 10 | > 10 | > 10 | > 10
CC1([C@@](O)(C#CC[N+]2(C)CCCCC2)c2ccccc2)CCCC1 | 1.26 | 1.41 | > 10 | > 10 | 2.19
Oc1cc(OCc2ccccc2F)ccc1-c1[nH]ncc1-c1ccccc1 | 3.09 | 4.07 | > 10 | 3.89 | 2.19
C[C@H]1Cc2cc(C(=O)NCc3nc(C(F)(F)F)n[nH]3)ccc2O1 | > 10 | > 10 | > 10 | 1.45 | 4.27
O=C(c1ccccc1F)N(Cc1nccn1Cc1c(F)cccc1Cl)C1CC1 | > 10 | 6.92 | > 10 | 1.32 | 2.75
COC1CCCC1NC(=O)Nc1ncc(Br)cc1C (stereo not given) | 2.29 | 1.38 | > 10 | 6.76 | 2
Cc1cc[n+]2c(-c3ccccc3)cc(-c3ccccc3)nc2c1 | 1.78 | 2.57 | > 10 | > 10 | 1.51
O=C(N[C@H]1CC[C@@H]2CCC[C@@H]21)c1c[nH]c(=O)c(Cl)c1 | 5.13 | 3.98 | > 10 | 2.45 | 2.19
CCN1CCN(C(=O)c2ccccc2N2CCC(NC(=O)c3cccc(Br)c3)CC2)CC1 | 5.37 | 1.66 | > 10 | > 10 | 2.51
CN(C(=O)C(C)(C)Nc1ncc(C(F)(F)F)cc1Cl)c1ccc(Cl)cc1 | > 10 | > 10 | > 10 | 1.55 | 3.55
Cc1ccc(C2=C[C@@H](c3ccc(Cl)cc3)n3nc(NC(=O)c4ccccc4)nc3N2)cc1 | 2.63 | 3.47 | > 10 | 2.14 | 1.74
c1ccc(C(c2ccccc2)N2CCN(c3nn4cnnc4c4ccccc34)CC2)cc1 | 2.82 | 3.24 | > 10 | 2.69 | 1.74
O=C1NC(=O)c2ccc3c4c(ccc1c24)C(=O)N(c1ccccc1)C3=O | 1.66 | 3.55 | > 10 | > 10 | 6.03
CN1CCC(NCC[C@@H](Cc2ccccc2Cl)c2ccc(Cl)cc2)CC1 | 2.24 | 2.57 | > 10 | 2.45 | 1.51
O=C(COc1ccccc1)Nc1ccc2c(c1)C(O)=Nc1cccnc1O2 | 2.82 | 2.45 | > 10 | > 10 | 1.74
Cc1ccc(C2c3ccsc3CCN2CCC(=O)N2CCN(C(=O)Cc3cccs3)C(C)C2)cc1 (stereo not given) | 10.5 | 2.75 | > 10 | > 10 | 8.91
Cc1nnc(NC(c2cnc3ccccc3c2)[C@H]2C[C@@H](O)C2)s1 (stereo not given in full) | > 10 | > 10 | > 10 | 1.58 | 4.07
O=C(N1CCCN(c2nc3ccccc3nc2-c2ccccc2)CC1)C(Cl)(Cl)Cl | 5.13 | 7.24 | > 10 | 8.91 | 2.88
CN1CC[C@H](CN(C)Cc2ccc3cc(O)ccc3c2)C1 | 3.02 | 0.832 | > 10 | 4.27 | 1.78
CN1CCC(n2ncc3[nH]c(-c4ccc(C(F)(F)F)cc4)nc32)CC1 | 1.2 | 1.51 | > 10 | 1.32 | 0.692
c1ccc2c[n+](Cc3ccc4ccccc4n3)ccc2c1 | 2.45 | 2.57 | > 10 | > 10 | 1.95
Cc1ccccc1C(=O)N(Cc1cccc(F)c1)c1ccc(CC(=O)NCCN2CCCCC2)cc1 | 4.68 | 2.75 | > 10 | > 10 | 2.57
